According to ChEMBL document CHEMBL3769405, “Discovery of Potent and Selective Inhibitors of Phosphodiesterase 1 for the Treatment of Cognitive Impairment Associated with Neurodegenerative and Neuropsychiatric Diseases” (J Med Chem, 2016):
≈ marks a conversion by molar mass, not a printed value.

Tests used:
[1] = in vivo; details: C57BL/6, mouse, brain/plasma
[2] = target: 3',5'-cyclic-AMP phosphodiesterase 4A (Homo sapiens, UniProt P27815); experiment: Inhibition of recombinant full lenght human PDE4A using fluorescent labeled cAMP as substrate after 15 mins by IMAP assay
[3] = Cmax in C57BL/6 mouse brain at 10 mg/kg administered through oral gavage; format: ADME, organism-based; parameters: dose 10 mg/kg, route oral
[4] = Inhibition of bovine brain PDE1 using fluorescent labeled cGMP as substrate after 15 mins by IMAP assay; parameters: species or system Bos taurus
[5] = Cmax in C57BL/6 mouse plasma at 10 mg/kg administered through oral gavage; format: ADME, organism-based; parameters: dose 10 mg/kg, route oral
[6] = Lipophilicity, logD of compound at pH 1.7; format: physicochemical; details: buffer
[7] = AUClast in C57BL/6 mouse brain at 10 mg/kg administered through oral gavage; format: ADME, organism-based; parameters: dose 10 mg/kg, time 0 - last, route oral
[8] = Intrinsic clearance in human liver microsomes; format: ADME; details: read-out: CLH
[9] = Lipophilicity, logD of compound at pH 7.4; format: physicochemical; details: buffer
[10] = Selectivity ratio of Ki for recombinant full lenght human PDE4A to bovine brain PDE1
[11] = AUClast in C57BL/6 mouse plasma at 10 mg/kg administered through oral gavage; format: ADME, organism-based; parameters: dose 10 mg/kg, time 0 - last, route oral
[12] = Solubility of compound in PBS; format: physicochemical
[13] = target: High affinity cGMP-specific 3',5'-cyclic phosphodiesterase 9A (Homo sapiens, UniProt O76083); experiment: Inhibition of recombinant full lenght human PDE9A using fluorescent labeled cGMP as substrate after 15 mins by IMAP assay
[14] = Inhibition of bovine retinal PDE6 using fluorescent labeled cGMP as substrate after 15 mins by IMAP assay
[15] = target: cGMP-specific 3',5'-cyclic phosphodiesterase (Homo sapiens, UniProt O76074); experiment: Inhibition of recombinant full lenght human PDE5A using fluorescent labeled cGMP as substrate after 15 mins by IMAP assay
[16] = AUC(infinity) in Sprague-Dawley rat at 9.75 mg/kg administered through oral gavage; format: ADME, organism-based; parameters: dose 9.75 mg/kg, route oral, time infinity; details: in vivo
[17] = target: cGMP-dependent 3',5'-cyclic phosphodiesterase (Homo sapiens, UniProt O00408); experiment: Inhibition of recombinant full length human PDE2A using fluorescent labeled cAMP as substrate after 15 mins by IMAP assay
[18] = target: 3',5'-cyclic-AMP phosphodiesterase 7B (Homo sapiens, UniProt Q9NP56); experiment: Inhibition of recombinant full lenght human PDE7B using fluorescent labeled cAMP as substrate after 15 mins by IMAP assay
[19] = target: High affinity cAMP-specific and IBMX-insensitive 3',5'-cyclic phosphodiesterase 8A (Homo sapiens, UniProt O60658); experiment: Inhibition of recombinant full lenght human PDE8A using fluorescent labeled cAMP as substrate after 15 mins by IMAP assay
[20] = Cmax in Sprague-Dawley rat at 9.75 mg/kg administered through oral gavage; format: ADME, organism-based; parameters: dose 9.75 mg/kg, route oral; details: in vivo
[21] = Tmax in Sprague-Dawley rat at 9.75 mg/kg administered through oral gavage; format: ADME, organism-based; details: in vivo
[22] = target: cGMP-inhibited 3',5'-cyclic phosphodiesterase 3B (Homo sapiens, UniProt Q13370); experiment: Inhibition of recombinant full length human PDE3B using fluorescent labeled cAMP as substrate after 15 mins by IMAP assay
[23] = target: cAMP and cAMP-inhibited cGMP 3',5'-cyclic phosphodiesterase 10A (Homo sapiens, UniProt Q9Y233); experiment: Inhibition of recombinant full lenght human PDE10A using fluorescent labeled cAMP as substrate after 15 mins by IMAP assay
[24] = Half time in Sprague-Dawley rat at 9.75 mg/kg administered through oral gavage; format: ADME, organism-based; details: in vivo
[25] = AUC(infinity) in Sprague-Dawley rat at 1 mg/kg, iv; format: ADME, organism-based; parameters: dose 1 mg/kg, time infinity, route intravenous; details: in vivo
[26] = Half time in Sprague-Dawley rat at 1 mg/kg, iv; format: ADME, organism-based; details: in vivo
[27] = Clearance in Sprague-Dawley rat at 1 mg/kg, iv; format: ADME, organism-based; details: in vivo
[28] = Volume of distribution in Sprague-Dawley rat at 1 mg/kg, iv; format: ADME, organism-based; details: in vivo
[29] = Oral bioavailability in Sprague-Dawley rat at 9.75 mg/kg administered through gavage; format: ADME, organism-based; details: in vivo

Chain of cGMP-inhibited 3',5'-cyclic phosphodiesterase 3B (Q13370 whole entry): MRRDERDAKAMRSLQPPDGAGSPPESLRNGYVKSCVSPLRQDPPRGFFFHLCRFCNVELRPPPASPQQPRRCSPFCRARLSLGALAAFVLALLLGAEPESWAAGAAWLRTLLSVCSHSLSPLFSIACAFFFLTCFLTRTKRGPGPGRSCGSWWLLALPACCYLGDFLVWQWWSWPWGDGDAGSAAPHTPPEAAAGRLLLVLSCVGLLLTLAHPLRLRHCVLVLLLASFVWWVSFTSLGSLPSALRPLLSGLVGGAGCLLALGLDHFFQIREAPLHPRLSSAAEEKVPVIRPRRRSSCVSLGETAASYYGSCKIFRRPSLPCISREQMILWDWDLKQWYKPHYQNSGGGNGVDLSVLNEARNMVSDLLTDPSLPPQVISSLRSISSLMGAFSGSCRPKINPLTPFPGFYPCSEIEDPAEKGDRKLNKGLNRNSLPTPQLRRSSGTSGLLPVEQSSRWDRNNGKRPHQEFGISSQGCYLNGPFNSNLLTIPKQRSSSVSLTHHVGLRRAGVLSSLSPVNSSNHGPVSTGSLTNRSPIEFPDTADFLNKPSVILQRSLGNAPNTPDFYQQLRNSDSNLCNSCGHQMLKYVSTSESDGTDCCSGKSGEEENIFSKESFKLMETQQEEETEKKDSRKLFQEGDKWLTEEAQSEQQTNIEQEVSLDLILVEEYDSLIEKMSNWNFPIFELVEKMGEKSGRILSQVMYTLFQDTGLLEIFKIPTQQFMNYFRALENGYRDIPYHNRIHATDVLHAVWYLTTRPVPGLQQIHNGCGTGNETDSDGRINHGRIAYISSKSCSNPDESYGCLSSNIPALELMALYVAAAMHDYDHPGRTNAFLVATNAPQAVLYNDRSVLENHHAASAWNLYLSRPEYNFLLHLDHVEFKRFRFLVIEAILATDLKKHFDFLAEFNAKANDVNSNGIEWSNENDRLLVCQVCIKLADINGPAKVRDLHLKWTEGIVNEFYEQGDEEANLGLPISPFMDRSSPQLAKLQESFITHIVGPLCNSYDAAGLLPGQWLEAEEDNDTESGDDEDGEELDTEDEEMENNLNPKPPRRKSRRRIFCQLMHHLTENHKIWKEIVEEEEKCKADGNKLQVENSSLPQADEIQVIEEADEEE
Chain of High affinity cGMP-specific 3',5'-cyclic phosphodiesterase 9A (O76083 whole entry): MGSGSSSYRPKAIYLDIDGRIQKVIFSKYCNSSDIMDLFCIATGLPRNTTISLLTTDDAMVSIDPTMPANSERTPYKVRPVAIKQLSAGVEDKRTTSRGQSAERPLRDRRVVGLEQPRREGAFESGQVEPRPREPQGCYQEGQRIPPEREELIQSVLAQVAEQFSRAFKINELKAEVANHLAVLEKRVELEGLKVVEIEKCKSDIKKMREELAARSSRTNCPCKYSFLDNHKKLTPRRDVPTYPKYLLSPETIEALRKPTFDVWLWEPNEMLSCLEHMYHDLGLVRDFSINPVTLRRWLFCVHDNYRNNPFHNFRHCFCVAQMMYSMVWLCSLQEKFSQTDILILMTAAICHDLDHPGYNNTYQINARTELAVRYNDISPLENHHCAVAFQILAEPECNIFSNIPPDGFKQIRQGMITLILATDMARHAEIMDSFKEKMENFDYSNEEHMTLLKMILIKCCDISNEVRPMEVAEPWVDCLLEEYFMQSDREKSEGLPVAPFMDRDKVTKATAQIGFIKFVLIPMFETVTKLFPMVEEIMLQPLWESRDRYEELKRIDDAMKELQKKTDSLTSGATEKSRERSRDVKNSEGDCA
Chain of 3',5'-cyclic-AMP phosphodiesterase 4A (P27815 whole entry): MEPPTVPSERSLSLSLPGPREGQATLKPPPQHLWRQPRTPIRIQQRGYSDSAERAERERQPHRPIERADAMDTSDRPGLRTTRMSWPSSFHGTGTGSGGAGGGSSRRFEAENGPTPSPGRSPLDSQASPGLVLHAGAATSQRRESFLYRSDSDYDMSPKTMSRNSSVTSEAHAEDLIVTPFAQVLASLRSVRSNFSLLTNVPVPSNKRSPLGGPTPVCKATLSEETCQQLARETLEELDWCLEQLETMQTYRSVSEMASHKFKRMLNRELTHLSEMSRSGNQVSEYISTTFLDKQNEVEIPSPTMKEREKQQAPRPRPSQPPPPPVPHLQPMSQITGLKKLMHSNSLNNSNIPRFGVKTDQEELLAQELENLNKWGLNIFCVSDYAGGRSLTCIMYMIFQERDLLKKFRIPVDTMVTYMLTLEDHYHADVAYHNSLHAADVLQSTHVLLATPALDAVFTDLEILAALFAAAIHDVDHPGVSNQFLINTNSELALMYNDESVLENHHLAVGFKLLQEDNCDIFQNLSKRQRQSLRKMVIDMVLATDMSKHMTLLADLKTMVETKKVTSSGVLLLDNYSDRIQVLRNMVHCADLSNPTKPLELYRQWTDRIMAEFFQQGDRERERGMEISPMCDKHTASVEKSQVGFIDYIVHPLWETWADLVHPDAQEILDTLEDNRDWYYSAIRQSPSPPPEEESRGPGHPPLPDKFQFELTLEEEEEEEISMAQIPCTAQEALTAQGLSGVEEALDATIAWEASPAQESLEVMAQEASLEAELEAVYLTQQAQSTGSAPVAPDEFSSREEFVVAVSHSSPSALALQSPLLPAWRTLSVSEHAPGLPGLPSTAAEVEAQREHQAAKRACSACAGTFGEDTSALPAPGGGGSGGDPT
Chain of High affinity cAMP-specific and IBMX-insensitive 3',5'-cyclic phosphodiesterase 8A (O60658 whole entry): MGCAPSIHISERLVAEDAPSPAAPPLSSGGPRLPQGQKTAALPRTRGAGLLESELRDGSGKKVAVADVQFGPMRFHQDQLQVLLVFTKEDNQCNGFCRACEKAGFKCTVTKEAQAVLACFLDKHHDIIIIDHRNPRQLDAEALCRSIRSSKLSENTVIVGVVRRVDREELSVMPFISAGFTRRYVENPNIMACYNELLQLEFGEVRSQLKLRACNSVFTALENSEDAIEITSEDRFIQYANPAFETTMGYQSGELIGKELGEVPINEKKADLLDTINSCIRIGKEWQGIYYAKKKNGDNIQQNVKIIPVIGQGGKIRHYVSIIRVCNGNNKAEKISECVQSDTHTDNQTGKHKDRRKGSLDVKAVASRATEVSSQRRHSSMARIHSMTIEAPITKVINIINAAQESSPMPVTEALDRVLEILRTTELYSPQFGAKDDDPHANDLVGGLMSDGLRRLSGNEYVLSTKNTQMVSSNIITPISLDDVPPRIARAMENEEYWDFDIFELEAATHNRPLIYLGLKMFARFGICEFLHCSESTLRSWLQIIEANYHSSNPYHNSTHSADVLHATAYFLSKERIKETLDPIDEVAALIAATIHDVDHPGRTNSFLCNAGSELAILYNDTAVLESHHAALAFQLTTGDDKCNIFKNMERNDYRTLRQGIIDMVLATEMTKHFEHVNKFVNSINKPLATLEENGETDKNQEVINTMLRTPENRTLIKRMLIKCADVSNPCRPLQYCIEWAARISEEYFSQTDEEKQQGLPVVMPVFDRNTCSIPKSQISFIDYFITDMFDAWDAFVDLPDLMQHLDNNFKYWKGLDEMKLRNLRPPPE
Chain of 3',5'-cyclic-AMP phosphodiesterase 7B (Q9NP56 whole entry): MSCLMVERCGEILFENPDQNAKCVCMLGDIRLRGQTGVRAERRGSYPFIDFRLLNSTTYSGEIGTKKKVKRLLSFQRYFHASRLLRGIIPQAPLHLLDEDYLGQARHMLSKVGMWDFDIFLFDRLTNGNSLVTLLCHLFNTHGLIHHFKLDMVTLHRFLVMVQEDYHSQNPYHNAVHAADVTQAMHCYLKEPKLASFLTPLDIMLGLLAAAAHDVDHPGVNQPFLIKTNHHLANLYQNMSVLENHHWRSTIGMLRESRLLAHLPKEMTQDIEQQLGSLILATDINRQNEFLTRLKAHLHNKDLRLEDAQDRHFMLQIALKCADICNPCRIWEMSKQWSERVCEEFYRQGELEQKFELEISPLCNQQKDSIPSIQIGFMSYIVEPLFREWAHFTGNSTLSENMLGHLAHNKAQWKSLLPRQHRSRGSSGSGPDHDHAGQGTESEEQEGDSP
Chain of cAMP and cAMP-inhibited cGMP 3',5'-cyclic phosphodiesterase 10A (Q9Y233 whole entry): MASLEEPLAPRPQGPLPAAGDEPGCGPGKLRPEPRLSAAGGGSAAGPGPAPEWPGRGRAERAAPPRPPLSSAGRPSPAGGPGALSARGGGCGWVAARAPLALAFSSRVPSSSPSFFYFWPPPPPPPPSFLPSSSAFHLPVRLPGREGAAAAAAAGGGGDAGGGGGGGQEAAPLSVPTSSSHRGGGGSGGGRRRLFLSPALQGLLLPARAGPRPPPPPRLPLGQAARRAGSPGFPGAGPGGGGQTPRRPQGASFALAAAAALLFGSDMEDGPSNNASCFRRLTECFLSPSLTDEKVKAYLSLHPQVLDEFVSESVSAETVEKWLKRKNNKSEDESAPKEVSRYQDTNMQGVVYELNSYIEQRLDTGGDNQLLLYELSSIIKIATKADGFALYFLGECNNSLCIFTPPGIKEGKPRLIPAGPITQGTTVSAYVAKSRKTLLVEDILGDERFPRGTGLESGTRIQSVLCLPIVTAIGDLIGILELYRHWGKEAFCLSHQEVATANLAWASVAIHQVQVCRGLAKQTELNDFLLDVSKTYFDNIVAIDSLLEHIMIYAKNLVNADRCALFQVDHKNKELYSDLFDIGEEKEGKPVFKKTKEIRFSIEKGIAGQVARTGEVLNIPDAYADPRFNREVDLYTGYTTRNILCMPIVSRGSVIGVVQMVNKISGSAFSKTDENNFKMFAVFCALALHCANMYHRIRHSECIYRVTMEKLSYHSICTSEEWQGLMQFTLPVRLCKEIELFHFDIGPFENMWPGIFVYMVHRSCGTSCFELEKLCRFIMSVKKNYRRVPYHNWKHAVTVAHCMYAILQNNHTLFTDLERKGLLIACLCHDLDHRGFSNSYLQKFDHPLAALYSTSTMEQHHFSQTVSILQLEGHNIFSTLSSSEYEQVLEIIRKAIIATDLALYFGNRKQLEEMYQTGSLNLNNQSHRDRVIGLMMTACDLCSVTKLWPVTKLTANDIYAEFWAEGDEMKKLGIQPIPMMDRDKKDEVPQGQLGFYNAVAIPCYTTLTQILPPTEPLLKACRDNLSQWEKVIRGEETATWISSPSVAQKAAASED

Row | Compound | Kp [1] | Ki [2] | Cmax [3] | Ki [4] | Cmax [5] | logD [6] | AUC(0-t) [7] | CLint scaled [8] | logD [9] | Ratio Ki [10] | AUC(0-t) [11] | solubility [12] | Ki [13] | Ki [14] | Ki [15] | AUC(0-inf) [16] | Ki [17] | Ki [18] | Ki [19] | Cmax [20] | also measured
1 | CN1C(=O)c2c(nn(Cc3ccc(-c4cccc(F)n4)cc3)c2Oc2ccc(F)cc2)N2C1=N[C@@H]1CCC[C@@H]12 | 0.9 | 0.22 µM | 64 ng/mL | 6.6 nM | 88 ng/mL | 1.21 | 102 ng·h/mL | 266 mL/min/kg | 4.77 | 33 | 119 ng·h/mL | 7 µM (≈ 3.69 µg/mL) | – | – | – | – | – | – | – | – | –
2 | CN1C(=O)c2c(nn(Cc3ccc(-c4cccc(F)n4)cc3)c2Cc2ccc(F)cc2)N2C1=N[C@@H]1CCC[C@@H]12 | 1.6 | 0.78 µM | 81 ng/mL | 2.3 nM | 44 ng/mL | 1.42 | 109 ng·h/mL | 81 mL/min/kg | > 5 | 339 | 69 ng·h/mL | < 1 µM | – | – | – | – | – | – | – | – | –
3 | CN1C(=O)c2c(nn(Cc3ccc(-c4cccc(F)n4)cc3)c2Cc2ccccc2)N2C1=N[C@@H]1CCC[C@@H]12 | 1.2 | 0.77 µM | 101 ng/mL | 2.2 nM | 86 ng/mL | 1.36 | 154 ng·h/mL | 165 mL/min/kg | 4.96 | 350 | 134 ng·h/mL | < 1 µM | – | – | – | – | – | – | – | – | –
4 | CN1C(=O)c2c(nn(Cc3ccc(-c4ccccc4)cc3)c2Nc2ccccc2)N2C1=N[C@@H]1CCC[C@@H]12 | – | 1.3 µM | 474 ng/mL | 0.85 nM | 130 ng/mL | 1.92 | 542 ng·h/mL | – | > 5 | – | 286 ng·h/mL | 2 µM (≈ 0.977 µg/mL) | > 100 µM | 1.1 µM | 1.6 µM | 816 ng·h/mL | 37 µM | 0.91 µM | 33 µM | 102 ng/mL | Tmax [21]: 4 h; Ki [22]: 1.5 µM; Ki [23]: 7.9 µM; half-life [24]: 3.1 h
5 | CN1C(=O)c2c(nn(Cc3ccc(-c4cccc(F)n4)cc3)c2Sc2ccccc2)N2C1=N[C@@H]1CCC[C@@H]12 | 0.8 | 0.93 µM | 71 ng/mL | 5.2 nM | 93 ng/mL | 2.49 | 81 ng·h/mL | 208 mL/min/kg | > 5 | 179 | 108 ng·h/mL | < 1 µM | – | – | – | – | – | – | – | – | –
6 | CN1C(=O)c2c(nn(Cc3ccc(-c4cccc(F)n4)cc3)c2Oc2ccccc2)N2C1=N[C@@H]1CCC[C@@H]12 | 0.9 | 0.25 µM | 170 ng/mL | 3 nM | 165 ng/mL | 1.05 | 192 ng·h/mL | 214 mL/min/kg | 4.61 | 83 | 210 ng·h/mL | 8 µM (≈ 4.07 µg/mL) | – | – | – | – | – | – | – | – | –
7 | CN1C(=O)c2c(nn(Cc3ccc(-c4ccccn4)cc3)c2Nc2ccccc2)N2C1=N[C@@H]1CCC[C@@H]12 | – | 0.24 µM | 28 ng/mL | 0.085 nM | 48 ng/mL | -0.58 | 21 ng·h/mL | 189 mL/min/kg | 3.54 | – | 65 ng·h/mL | > 100 µM | 6.1 µM | 0.43 µM | 0.6 µM | 636 ng·h/mL | 24 µM | 0.3 µM | 8.2 µM | 158 ng/mL | AUC(0-inf) [25]: 420 ng·h/mL; Tmax [21]: 0.5 h; half-life [26]: 0.72 h; Ki [22]: 1.2 µM; Ki [23]: 2.7 µM; clearance [27]: 40 mL/min/kg; half-life [24]: 1.5 h; Vd [28]: 2.48 L/kg; bioavailability [29]: 16%
8 | CN1C(=O)c2c(nn(Cc3ccc(C(F)(F)F)cc3)c2Nc2ccccc2)N2C1=N[C@@H]1CCC[C@@H]12 | – | 0.93 µM | 285 ng/mL | 0.88 nM | 60 ng/mL | 1.16 | 548 ng·h/mL | 139 mL/min/kg | 4.47 | – | 122 ng·h/mL | 35 µM (≈ 16.8 µg/mL) | 50 µM | 1.6 µM | 0.59 µM | 214 ng·h/mL | 39 µM | 1.2 µM | 54 µM | 75 ng/mL | AUC(0-inf) [25]: 271 ng·h/mL; Tmax [21]: 0.25 h; half-life [26]: 1.4 h; Ki [22]: 30 µM; Ki [23]: 5.4 µM; clearance [27]: 62 mL/min/kg; half-life [24]: 1.5 h; Vd [28]: 7.44 L/kg; bioavailability [29]: 8%
9 | CN1C(=O)c2c(nn(Cc3ccc(C(F)(F)F)nc3)c2Nc2ccccc2)N2C1=N[C@@H]1CCC[C@@H]12 | – | 1.2 µM | – | 1.9 nM | – | – | – | – | – | – | – | – | > 100 µM | 5.5 µM | 1.2 µM | – | > 100 µM | 6.1 µM | > 100 µM | – | Ki [22]: 42 µM; Ki [23]: 19 µM
10 | CN1C(=O)c2c(nn(Cc3ccc(C(F)(F)F)cc3)c2Nc2ccc(F)cc2)N2C1=N[C@@H]1CCC[C@@H]12 | 6.9 | 0.42 µM | 133 ng/mL | 0.63 nM | 21 ng/mL | 1.11 | 166 ng·h/mL | 73 mL/min/kg | 4.57 | 667 | 24 ng·h/mL | 31 µM (≈ 15.5 µg/mL) | – | – | – | 164 ng·h/mL | – | – | – | 42 ng/mL | AUC(0-inf) [25]: 292 ng·h/mL; Tmax [21]: 0.5 h; half-life [26]: 1.5 h; clearance [27]: 57 mL/min/kg; half-life [24]: 2.2 h; Vd [28]: 7.48 L/kg; bioavailability [29]: 6%
